Results from patent US12098217B2, “Fusion peptides as antimicrobial agents” (CENTRE NATIONAL DE LA RECHERCHE SCIENTIFIQUE, priority 2019, dated 2024).
In brackets after ≈: the same amount, converted by molar mass. Where two headings read alike, the source gives them in different places. Square brackets hold non-standard residues; d marks the D form. Peptide text beside a SMILES is read from it. * marks the point of attachment. 5FAM = O=C1OC2(c3ccc(O)cc3Oc3cc(O)ccc32)c2ccc(C(=O)*)cc21; Cha = N[C@@H](CC1CCCCC1)C(=O)O

What was measured:
E. coli D22 strain = experiment: microbe, parasite or virus in culture; assay type: cell-based
Text: E. coli strain D22 (F-, IpxC101, proA23, lac-28, tsx-81, trp-30, his-51, tufA1, rpsL173(strR), ampCp-1 was purchased at E. coli Genetic Stock Center (Yale University) and used in the determination of MIC and in the peptide penetration assays. E. coli ATCC23724 cells were used to infect D. melanogaster flies. 70S ribosomes were purified from the E. coli MRE600 strain (Accession AY140951) and BL21 (DE3) pLys strain was used for production of the DnaN protein.
(§1) E. coli strains were cultivated on either agar or liquid 1× Mueller Hinton broth unless specified. MIC assays were performed in duplicate in 96-well microtiter plates on the basis of the protocol recommended by the Clinical and Laboratory Standards Institute. Briefly, a mix of 5-6 fresh (less than 36 hours) colonies grown on MH agar plates were inoculated in 3 ml of MH broth and incubated for about 16 h at 37° C. under agitation. 30 μl of this saturated culture were inoculated in 3 ml of fresh medium and allowed to grow until OD600 nm of about 0.6-0.8. Dilution to an OD600 nm of 0.002 was made in MH broth. Within a time laps not exceeding 30 min, 50 μl of this cell suspension was added to 50 μl of MH broth (containing or not the peptide/antibiotic diluted in MH broth) in wells of a 96-well round bottom microwell plate (Greiner; final cell density about 2 to 5×10^5 cfu/ml). Plates were incubated at 37° C. for 18-24 h and final turbidity of each well was measured at 620 nm using a Multiskan FC microplate reader (Thermo Scientific). MIC was defined as the minimal antibiotic concentration that result in no increase of turbidity at that time. Each MIC determination was performed in duplicate and at least in two independent experiments. Plating of 75 μl of the content of the wells of interest on LB Agar plates was used to determine the MBC that is defined by a decrease of at least 99.9% of cell viability as compared to the number of viable cells in the inoculum (about 2 to 5×10^4 cfu).

[1] = tested on: E. coli ATCC 25922 (DSM 1103) strain; assay type: cell-based; conditions: ATCC 25922, 36 h
Description: as §1
The antimicrobial activities of these peptides have been tested against the E. coli ATCC 25922 (DSM 1103) strain in 1× Mueller-Hinton broth as mentioned above.
The antimicrobial activities of these peptides and controls have been tested against the E. coli ATCC 25922 (DSM 1103) strain in 1× Mueller-Hinton broth.

[2] = tested on: E. coli 70S ribosome (^Ec70S); experiment: ITC, peptide interaction with E. coli 70S ribosome; assay type: binding
Description: E. coli MRE600 cells were grown at 37° C. in LB medium until OD^600=1. Cells were centrifuged at 4° C., and pellets were resuspended in buffer A (20 mM Tris HCl pH 7.5; 200 mM NH4Cl; 20 mM MgCl2; 0.1 mM EDTA; 6 mM β-mercaptoethanol) and lysed using a French press at 1.6 kbar. The crude lysate was centrifuged (18 200 rpm) for 30 mn at 4° C. The supernatant was further centrifuged (47000 rpm) at 4° C. for 4 hours and the pellet resuspended in 12.5 ml of buffer A. This solution was laid on a 30% sucrose cushion and centrifuged (34 000 rpm) for 19 hours at 4° C. The ribosome pellet was resuspended in 12.5 ml buffer B (20 mM Tris HCl pH 7.5; 50 mM NH4Cl; 10 mM MgCl2; 0.1 mM EDTA; 6 mM β-mercaptoethanol) and centrifuged again (18 200 rpm) for 1 hour at 4° C. The supernatant was concentrated on Centrikon 100K (Millipore) and washed extensively with ITC 70S buffer. Ribosome concentration was determined by UV absorption at 260 nm. Samples were snap frozen in liquid nitrogen and kept at −80° C.
(§2) ITC experiments were performed on a iTC200 (Microcal Malvern Panalytical) or PEAQ-ITC instrument (Microcal Malvern Panalytical). The E. coli SC were washed extensively with ITC buffer (R1 buffer: 10 mM Hepes pH 7.4, 0.15 M NaCl, 3 mM EDTA) on Centrikon 10K at 4° C. before ITC experiments. […] Similarly, E. coli 70S ribosome particles were also washed extensively with ITC 70S buffer (50 mM Tris HCl pH7.5, 30 mM KCl, 70 mM NH4Cl, 7 mM MgCl2, 1 mM DTT, 5% glycerol) on Centrikon 100K at 4° C. before ITC experiments. Peptides (100 to 400 μM) were titrated at 30° C. (303.15 K) in sequential injections (usually 2 μl each) into a SC (20 or 30 μM) or 70S (10 to 15 μM) solution. Data were corrected from control experiments in which peptides were injected in ITC buffer solution. Each titration was performed at least twice. Analyses of experimental data were performed with AFFINImeter software (https://www.affinimeter.com; S4S, Santiago de Compostela, Spain).
The lack of interaction with the ribosome of E. coli has been measured by ITC at 30° C.:
The interactions of these peptides with the E. coli SC (beta ring) and the ribosome were measured by ITC at […]: […]

[3] = biological target: T1, E. coli SC (^EcSC, beta ring, DnaN) (Escherichia coli, UniProt P0A988); experiment: ITC, peptide interaction with E. coli sliding clamp; assay type: binding
T1 construct: inferred from the pET15b vector and the Ni-NTA/imidazole purification; made in house; host or cells: E. coli BL21 (DE3) pLys
T1 sequence (P0A988 whole entry): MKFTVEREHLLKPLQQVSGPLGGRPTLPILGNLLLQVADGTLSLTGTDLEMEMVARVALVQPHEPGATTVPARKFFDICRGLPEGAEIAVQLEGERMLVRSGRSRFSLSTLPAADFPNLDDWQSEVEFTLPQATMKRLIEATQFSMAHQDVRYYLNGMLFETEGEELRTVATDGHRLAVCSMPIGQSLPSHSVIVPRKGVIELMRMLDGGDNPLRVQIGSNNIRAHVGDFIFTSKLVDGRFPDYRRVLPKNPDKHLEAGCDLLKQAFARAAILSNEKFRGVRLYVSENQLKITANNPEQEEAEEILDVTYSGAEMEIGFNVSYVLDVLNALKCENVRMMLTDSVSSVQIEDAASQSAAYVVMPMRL
Description: The DnaN protein was expressed from plasmids pET15b, containing the dnaN gene from E. coli, transfected in BL21 (DE3) pLys E. coli strain. Cells were grown in LB at 37° C. to OD 0.5, then induced by IPTG (0.1 mM) at 28° C. overnight. DnaN protein was first enriched on a Ni-NTA column, eluted with an imidazole step (300 mM) and further purified on a Source Q column in buffer containing 20 mM Tris HCl pH 7.5, 0.5 mM EDTA and 10% glycerol, using a gradient from 0 to 0.5 M NaCl. After a final ultracentrifugation (45K, 1 h, 20° C.), soluble proteins were concentrated on a Centricon 30K (Millipore) in the same buffer and stored at 4° C. in 2 M ammonium sulfate.
as §2, with “[…] […]” for “Peptides (100 to 400 μM) were titrated at 30° C. (303.15 K) in sequential injections (usually 2 μl each) into a SC (20 or 30 μM) or 70S (10 to 15 μM) solution.”

[4] = ITC, 30° C., E. coli ribosome, FITC-Onc112 series
[5] = ITC 30° C. (303.15 K), Table 2A, ^EcSC, Ni = no specific interaction
[6] = ITC 30° C., Table 2A, ^EcSC, Ni = no specific interaction
[7] = ITC 30° C., Table 2B, ^Ec70S, Ni = no specific interaction
[8] = ITC 30° C., Table 2B, ^Ec70S, Ni = no specific interaction, FITC peptides (*) values not well defined
[9] = E. coli D22, Mueller Hinton broth, range of at least 2 independent experiments

SMILES: CC1(C)S[C@@H]2[C@H](NC(=O)[C@H](N)c3ccccc3)C(=O)N2[C@H]1C(=O)O [Ampicillin, reference compound]
- MIC (E. coli D22 strain; Escherichia coli, D22STRAIN, E. coli D22, Mueller Hinton broth, range of at least 2 independent experiments, read-out: MIC): 22.9 to 45.8 µM
- MIC (E. coli D22 strain; Escherichia coli, D22STRAIN, E. coli D22, Mueller Hinton broth, range of at least 2 independent experiments, read-out: MIC (μg/ml)): 8 to 16 µg/mL
- MBC (E. coli D22 strain; Escherichia coli, D22STRAIN, E. coli D22, decrease of at least 99.9% of cell viability, read-out: MBC): 16 µg/mL (≈ 45.8 µM)

SMILES: CC[C@H](C)[C@H](NC(=O)[C@@H](CCCNC(=N)N)NC(=O)[C@H](CCCNC(=N)N)NC(=O)[C@@H]1CCCN1C(=O)[C@@H]1CCCN1C(=O)[C@H](CCCNC(=N)N)NC(=O)[C@@H]1CCCN1C(=O)[C@H](CCCNC(=N)N)NC(=O)[C@@H]1CCCN1C(=O)[C@H](CC(C)C)NC(=O)[C@H](Cc1ccc(O)cc1)NC(=O)[C@@H]1CCCN1C(=O)[C@@H]1CCCN1C(=O)[C@H](CCCCN)NC(=O)[C@H](CC(=O)O)NC(=O)[C@@H](NC(=O)c1ccc2c(c1)C(=O)OC21c2ccc(O)cc2Oc2cc(O)ccc21)C(C)C)C(=O)N[C@@H](Cc1ccc(O)cc1)C(=O)N[C@@H](CC(N)=O)C(=O)N[C@H](CCCNC(=N)N)C(N)=O [CA3-124] (5FAM-VDKPPYLPRPRPPR[dR]IYN[dR]-NH2)
- MIC [1]: 32 to 64 µM
- Kd [2, 4]: 7700 nM
- ΔG (kcal/mol) [2, 4]: −7.1 (±0.4) kcal/mol
- ΔH [2, 4]: -22.6 kcal/mol

SMILES: CC[C@H](C)[C@H](NC(=O)[C@@H]1CCCN1C(=O)[C@H](CCCNC(=N)N)NC(=O)[C@@H]1CCCN1C(=O)[C@@H]1CCCN1C(=O)[C@@H](NC(=O)[C@@H]1CCCN1C(=O)[C@H](CCCNC(=N)N)NC(=O)[C@@H]1CCCN1C(=O)[C@H](CC(C)C)NC(=O)[C@H](Cc1ccc(O)cc1)NC(=O)[C@H](CO)NC(=O)CNC(=O)[C@H](CCCCN)NC(=O)[C@H](CC(=O)O)NC(=O)[C@@H](N)C(C)C)[C@@H](C)O)C(=O)N[C@@H](Cc1ccc(O)cc1)C(=O)N[C@@H](CC(N)=O)C(=O)N[C@@H](CCCNC(=N)N)C(=O)N[C@@H](CC(N)=O)C(=O)NCC(=O)N1CCC[C@H]1C(=O)N[C@@H](CCCNC(=N)N)C(=O)N[C@@H](CCC(N)=O)C(=O)N[C@@H](CC1CCCCC1)C(=O)N[C@@H](CC(=O)O)C(=O)N[C@@H](CC(C)C)C(=O)N[C@@H](Cc1ccccc1)C(=O)O [Peptide P116] (H-VDKGSYLPRPTPPRPIYNRNGPRQ[Cha]DLF-OH)
- MBC (E. coli D22 strain; D22 strain): 8 µg/mL (≈ 2.42 µM)
- MIC (μM) (E. coli D22 strain; D22 strain): 1.2 to 2.4 µM
- MIC (μg/ml) (E. coli D22 strain; D22 strain): 4 to 8 µg/mL
- antibacterial activity, in words (E. coli D22 strain; E. coli D22, microdilution broth assay): no increase in the activity
- interaction with ^EcSC, in words ([3]; ITC 30° C.): as efficiently as P7 alone
- ΔH [3, 5]: -13.9 kcal/mol
- ΔG [3, 6]: -9.61 kcal/mol
- −TΔS [3, 6]: 4.3 kcal/mol
- interaction with ^Ec70S, in words ([2]; ITC 30° C.): efficiently interact
- Kd [2, 7]: 37 nM
- ΔG [2, 8]: -10.3 kcal/mol
- ΔH [2, 8]: -22.3 kcal/mol
- −TΔS [2, 8]: 12 kcal/mol
- affinity for the ribosome relative to affinity for SC ([2]; from Table 2, ^Ec70S versus ^EcSC): three times higher affinity

SMILES: CC[C@H](C)[C@H](NC(=O)[C@@H]1CCCN1C(=O)[C@H](CCCNC(=N)N)NC(=O)[C@@H]1CCCN1C(=O)[C@@H]1CCCN1C(=O)[C@@H](NC(=O)[C@@H]1CCCN1C(=O)[C@H](CCCNC(=N)N)NC(=O)[C@@H]1CCCN1C(=O)[C@H](CC(C)C)NC(=O)[C@H](Cc1ccc(O)cc1)NC(=O)[C@H](CO)NC(=O)CNC(=O)[C@H](CCCCN)NC(=O)[C@H](CC(=O)O)NC(=O)[C@@H](N)C(C)C)[C@@H](C)O)C(=O)N[C@@H](Cc1ccc(O)cc1)C(=O)N[C@@H](CC(N)=O)C(=O)N[C@@H](CCCNC(=N)N)C(=O)N[C@@H](CC(N)=O)C(=O)NCC(=O)N1CCC[C@H]1C(=O)N[C@@H](CCCNC(=N)N)C(=O)N[C@@H](CC1CCCCC1)C(=O)N[C@@H](Cc1ccccc1)C(=O)N[C@@H](CCC(N)=O)C(=O)N[C@@H](CC(C)C)C(=O)N[C@@H](CC(=O)O)C(=O)O [Peptide P188]
- MIC (μM) (E. coli D22 strain; D22 strain): 1.2 to 2.4 µM
- MIC (μg/ml) (E. coli D22 strain; D22 strain): 4 to 8 µg/mL
- interaction with ^EcSC, in words ([3]; ITC 30° C.): fail to interact
- ΔH (kcal/mole) [3, 5]: Ni
- Kd (nM) [3, 6]: Ni
- ΔG (kcal/mole) [3, 6]: Ni
- −TΔS (kcal/mole) [3, 6]: Ni
- Kd [2, 7]: 75.8 nM
- ΔG [2, 8]: -9.89 kcal/mol
- ΔH [2, 8]: -15.4 kcal/mol
- −TΔS [2, 8]: 5.5 kcal/mol

SMILES: CN(C)[C@@H]1C(=O)C(C(N)=O)=C(O)[C@@]2(O)C(=O)C3=C(O)c4c(O)cccc4[C@@](C)(O)[C@H]3C[C@@H]12 [Tetracyclin, reference compound]
- MIC (μM) (E. coli D22 strain; [9]): 0.56 to 1.12 µM
- MIC (μg/ml) (E. coli D22 strain; [9]): 0.25 to 0.5 µg/mL
- MBC (E. coli D22 strain; E. coli D22, decrease of at least 99.9% of cell viability): 0.5 µg/mL (≈ 1.13 µM)
